Values quoted from earlier work, collected in US12220439B2, “Methods of diagnosing and treating dry eye syndrome and compositions for treating a human eye” (Akrivista LLC, priority 2017, dated 2025).

Experiments:
corneal cells = details: concentrations from about 0.004% to about 0.02% (w/v)
Pseudomonas aeruginosa = details: strains of Pseudomonas aeruginosa
HLA-DR = details: dry eye disease biomarker

Compound	effect on corneal epithelium (corneal cells)	effectiveness against potential contaminants (Pseudomonas aeruginosa)	HLA-DR presence on treatment (HLA-DR)
benzalkonium chloride [BAK]	can lead to corneal epithelial separation	not effective	–
C[C@@H]1CCN(C(=O)CC#N)C[C@@H]1N(C)c1ncnc2[nH]ccc12 [tofacitinib]	–	–	Presence decreased with CsA
